# Experimental data taken from patent US20240000950A1, “THERAPEUTIC CURE-PRO COMPOUNDS FOR TARGETED DEGRADATION OF BET DOMAIN PROTEINS, AND METHODS OF MAKING AND USING THEM” (CORNELL UNIVERSITY, priority 2020, published 2024).
# Entries after “also recorded” stand apart in the source; their conditions may differ.
# Assays:
# [1] = test system: MV-4-11 cells; test: CellTiter-Glo cell viability, MV-4-11 cells; assay type: cell-based
# Method: All cell lines were purchased from ATCC or DSMZ and grown at 37° C. with 5% C02. Human HeLa cells were cultured in complete growth medium (Dulbecco's modified Eagle's medium (DMEM) supplemented with 10% FBS); MCF7 cells were cultured in complete growth medium (Dulbecco's modified Eagle's medium (DMEM) supplemented with 10% FBS and 0.01 mg/ml human recombinant insulin (Sigma Aldrich); Namalwa and MOLM-13 cells were cultured in complete growth medium (RPMI 1640 medium supplemented with 10% FBS); MV-4-11 were cultured in complete growth medium (Iscove's Modified Dulbecco's medium, supplemented with 10% FBS); HCT116 cells were cultured in complete growth medium (McCoy's 5a Medium supplemented with 10% FBS). For cellular degradation of BRD4 studies, cells were seeded in a 12-well plate at 70-80% confluency, allowed to attach overnight, and incubated with the indicated compounds for the indicated time. When indicated, a 15-minute pretreatment with 10 μM pomalidomide, 10 μM VHL298, 10 μM Nutlin3a, 1 μM MG-132 or 1 μM Carfilzomib was performed before the addition of CURE-PROs. For washout studies, after CURE-PRO treatment, media was aspirated and incubated with complete medium for the indicated time before lysis.
# CellTiter-Glo® 2.0 Cell Viability Assay (Promega) was carried out following the manufacturer's recommendations. Cells were seeded at a density of 1000 cells/well in a white 96 well plates (Corning, #3917) in a total volume of 100 μl with respective monomers, combinations of BRD ligands together with E3 ligase ligands or vehicle control treatment. After a 72 h incubation, 100 ul of the CellTiter-Glo® substrate was added per well and luminescence was read on a Spectramax M5 (Molecular Devices). Dose-response curves were generated using Graphpad Prism software.
# MV-4-11 cells (5×104) were treated for 24 hours with the sample compounds solubilized in DMSO. The compounds were added at 1 nM-100 μM each. Cellular viability was determined using the CellTiter-Glo® Luminescent Cell Viability Assay (Promega) described above. FIGS. 19-22 depict the CURE-PRO-mediated loss of cellular viability for BRD monomers (JQ1 derivatives comprising of catechol linkers), and CRBN ligand, 8049 (pomalidomide derivatives comprising boronic acid linkers) combined in a 1:1 ratio.
# MV-4-11 cells (1×104) were treated for 72 hours with the compounds solubilized in DMSO. Compounds were added at 10 nM-100 μM each. Cellular viability was determined using the CellTiter-Glo® Luminescent Cell Viability Assay (Promega) described above. FIGS. 47-54 depict the CURE-PRO-mediated loss of cellular viability for BRD monomers (JQ1 derivatives comprising of boronic acid linkers), and CRBN ligands, 8046, 8047, and 8066 (pomalidomide derivatives comprising diol linkers) combined in a 1:1 ratio.
# [2] = molecular target: BRD4 (Homo sapiens, UniProt O60885); test: Summary of E3 ligase directed degradation of BRD4, estimated from Western Blot or WES (Tables 1-6); assay type: cell-based; parameters: endogenous in cells; host or cells: HeLa, MCF7 or HCT116; settings: for Degradation of BRD4, combination with CRBN ligand [drawing 422]: CRBN ligand drawn as drawing 422 (by the text apparently 8066); for Degradation of BRD4, combination with CRBN ligand [drawing 397]: aromatic 1,2-diol- or hindered cis-1,2-diol-containing CRBN ligand drawn as drawing 397 (by the text apparently 8046); for Degradation of BRD4, combination with CRBN ligand [drawing 457]: aryl-boronic acid-containing CRBN ligand drawn as drawing 457 (by the text apparently 8048)
# Method: HeLa, MCF7, or HCT116 cells (2.5-3×10^6) were treated for 24 hours with the indicated compounds solubilized in DMSO. The cells were washed in ice-cold PBS and were then lysed in RIPA lysis buffer (150 mM NaCl, 5 mM EDTA, 1% NP-40, 0.5% sodium deoxycholate, 0.1% SDS, 50 mM Tris, pH 8.0) with Roche protease inhibitor complete cocktail and phosphatase inhibitors (10 mM sodium fluoride, 10 mM sodium pyrophosphate, 1 mM sodium orthovanadate and 20 mM β-glycerophosphate). The total protein concentrations were determined by Bradford Protein Assay and 10-20 μg of protein was loaded onto 4-15% Tris-Glycine gradient gels (Biorad). After standard gel electrophoresis, the separated proteins were transferred to PVDF membrane by wet transfer. The immunoblots were then blocked for 1 hour in 5% skim milk in TBST or 5% BSA in TBST, according to manufacturer's instructions, before an overnight incubation at 4° C. with indicated antibodies and membranes. Membranes were then incubated with the appropriate horseradish peroxidase-conjugated secondary antibodies (1:5,000 dilution) for 1 h at room temperature and the bands were visualized using the Clarity Max Western ECL Substrate (Biorad) and the ChemiDoc Imaging System (Biorad). Signal was detected with ECL Western Blotting Substrate (Pierce) and X-ray film processed with a Konica SRX-101 X-ray film processor or captured by Bio-Rad's Chemidoc Imaging system.
# WES Simple analysis was performed on WES system (ProteinSimple-Biotechne) according to the manufacturer's instructions. Total protein concentrations of cell lysates were determined by the Pierce BCA kit (Thermo Fisher). 3 μL of 0.3 μg/uL of the protein lysate was loaded onto a 12- to 230-kDa WES assay plate (ProteinSimple) where 300 nL sample was withdrawn through a capillary, subjected to electrophoretic separation of proteins by size, and followed by the simultaneous, HRP-based detection of proteins using the Anti-Rabbit Detection Module (Proteinsimple: #DM-001). The electropherograms were checked then the automatic peak detection was manually corrected if it was required.
# A black check mark indicates efficacy of 30% to 70% or higher protein degradation.
# [3] = 72 h, 10 nM-100 μM, cotreated 1:1 with each of CRBN ligands 8066, 8046 and 8047, compared to monomers alone
structure (smiles),measurement,setting,value
"CCNC(=O)C[C@@H]1N=C(c2ccc(Cl)cc2)c2cc(OCCCCC(=O)Nc3cccc(B(O)O)c3)ccc2-n2c(C)nnc21 [BRD-E20, (3-(5-(((4S)-6-(4-chlorophenyl)-4-(2-(ethylamino)-2-oxoethyl)-1-methyl-4H-benzo[f][1,2,4]triazolo[4,3-a][1,4]diazepin-8-yl)oxy)pentanamido)phenyl)boronic acid]",toxicity / loss of cellular viability (CellTiter-Glo),[1]; [3],reduced viability; also recorded: increased toxicity
same,"Degradation of BRD4, combination with CRBN ligand [drawing 422]",[2]; Table 1,✓ (A black check mark indicates efficacy of 30% to 70% or higher protein degradation)
same,"Degradation of BRD4, combination with CRBN ligand [drawing 397]",[2]; Table 1,✓ (A black check mark indicates efficacy of 30% to 70% or higher protein degradation)
same,"Degradation of BRD4, combination with MDM2 ligand [drawing 430]","[2]; Table 2, aromatic 1,2-diol-containing MDM2 ligand drawn as drawing 430 (by the text apparently 8313)",✓ (A black check mark indicates efficacy of 30% to 70% or higher protein degradation)
same,"Degradation of BRD4, combination with MDM2 ligand [drawing 431]","[2]; Table 2, aromatic 1,2-diol-containing MDM2 ligand drawn as drawing 431 (by the text apparently 8314)",✓ (A black check mark indicates efficacy of 30% to 70% or higher protein degradation)
same,"Degradation of BRD4, combination with VHL ligand [drawing 442]","[2]; Table 3, aromatic 1,2-diol-containing VHL ligand drawn as drawing 442 (by the text apparently 8305)",✓ (A black check mark indicates efficacy of 30% to 70% or higher protein degradation)
"COc1ccc2c(c1)C(c1ccc(Cl)cc1)=N[C@@H](CC(=O)NCCNC(=O)/C=C/c1ccc(B(O)O)cc1)c1nnc(C)n1-2 [BRD-E29, (4-((E)-3-((2-(2-((4S)-6-(4-chlorophenyl)-8-methoxy-1-methyl-4H-benzo[f][1,2,4]triazolo[4,3-a][1,4]diazepin-4-yl)acetamido)ethyl)amino)-3-oxoprop-1-en-1-yl)phenyl)boronic acid]",toxicity / loss of cellular viability (CellTiter-Glo),[1]; [3],reduced viability; also recorded: increased toxicity
same,"Degradation of BRD4, combination with CRBN ligand [drawing 421]","[2]; Table 1, CRBN ligand drawn as drawing 421 (by the text apparently 8047)",✓ (A black check mark indicates efficacy of 30% to 70% or higher protein degradation)
same,"Degradation of BRD4, combination with CRBN ligand [drawing 422]",[2]; Table 1,✓ (A black check mark indicates efficacy of 30% to 70% or higher protein degradation)
same,"Degradation of BRD4, combination with CRBN ligand [drawing 397]",[2]; Table 1,✓ (A black check mark indicates efficacy of 30% to 70% or higher protein degradation)
COc1ccc2c(c1)C(c1ccc(Cl)cc1)=N[C@@H](CC(=O)NCCOCCOCCNC(=O)c1cccc(B(O)O)c1)c1nnc(C)n1-2 [BRD-E46],toxicity / loss of cellular viability (CellTiter-Glo),[1]; [3],reduced viability; also recorded: increased toxicity
same,"Degradation of BRD4, combination with CRBN ligand [drawing 422]",[2]; Table 1,✓ (A black check mark indicates efficacy of 30% to 70% or higher protein degradation)
same,"Degradation of BRD4, combination with CRBN ligand [drawing 397]",[2]; Table 1,✓ (A black check mark indicates efficacy of 30% to 70% or higher protein degradation)
"COc1ccc2c(c1)C(c1ccc(Cl)cc1)=N[C@@H](CC(=O)Nc1cccc(B(O)O)c1)c1nnc(C)n1-2 [BRD-E73, (3-(2-((4S)-6-(4-chlorophenyl)-8-methoxy-1-methyl-4H-benzo[f][1,2,4]triazolo[4,3-a][1,4]diazepin-4-yl)acetamido)phenyl)boronic acid]",toxicity / loss of cellular viability (CellTiter-Glo),[1]; [3],reduced viability; also recorded: increased toxicity
"COc1ccc2c(c1)C(c1ccc(Cl)cc1)=N[C@@H](CC(=O)NCCCCCNC(=O)c1cccc(O)c1O)c1nnc(C)n1-2 [BRD-N8, N-(5-(2-((4S)-6-(4-chlorophenyl)-8-methoxy-1-methyl-4H-benzo[f][1,2,4]triazolo[4,3-a][1,4]diazepin-4-yl)acetamido)pentyl)-2,3-dihydroxybenzamide]",toxicity / loss of cellular viability (CellTiter-Glo),"[1]; 1 nM-100 μM, cotreated 1:1 with CRBN ligand 8049",a concentration-dependent loss in cellular viability was observed; also recorded: increased toxicity
COc1ccc2c(c1)C(c1ccc(Cl)cc1)=N[C@@H](CC(=O)NCCOCCOCCOCCNC(=O)c1ccc(O)c(O)c1)c1nnc(C)n1-2 [BRD-N44],"Degradation of BRD4, combination with CRBN ligand [drawing 457]",[2]; Table 4,✓ (A black check mark indicates efficacy of 30% to 70% or higher protein degradation)
CCNC(=O)C[C@@H]1N=C(c2ccc(Cl)cc2)c2cc(-c3ccc4cc(O)c(O)cc4c3)ccc2-n2c(C)nnc21 [BRD-N67],"Degradation of BRD4, combination with CRBN ligand [drawing 457]",[2]; Table 4,✓ (A black check mark indicates efficacy of 30% to 70% or higher protein degradation)
same,"Degradation of BRD4, combination with CRBN ligand [drawing 458]","[2]; Table 4, aryl-boronic acid-containing CRBN ligand drawn as drawing 458 (by the text apparently 8049)",✓ (A black check mark indicates efficacy of 30% to 70% or higher protein degradation)
COc1ccc2c(c1)C(c1ccc(Cl)cc1)=N[C@@H](CC(=O)Nc1ccc(O)c(O)c1)c1nnc(C)n1-2 [BRD-N68],"Degradation of BRD4, combination with CRBN ligand [drawing 457]",[2]; Table 4,✓ (A black check mark indicates efficacy of 30% to 70% or higher protein degradation)
COc1ccc2c(c1)C(c1ccc(Cl)cc1)=N[C@@H](CC(=O)NCCOCCOCCOCCOCCNC(=O)c1ccc(O)c(O)c1)c1nnc(C)n1-2 [BRD-N69],"Degradation of BRD4, combination with CRBN ligand [drawing 457]",[2]; Table 4,✓ (A black check mark indicates efficacy of 30% to 70% or higher protein degradation)
"CCNC(=O)C[C@@H]1N=C(c2ccc(Cl)cc2)c2cc(OCCOCCOCCOCCOCCOCCNC(=O)c3ccc(O)c(O)c3)ccc2-n2c(C)nnc21 [BRD-N70, N-(17-(((4S)-6-(4-chlorophenyl)-4-(2-(ethylamino)-2-oxoethyl)-1-methyl-4H-benzo[f][1,2,4]triazolo[4,3-a][1,4]diazepin-8-yl)oxy)-3,6,9,12,15-pentaoxaheptadecyl)-3,4-dihydroxybenzamide]","Degradation of BRD4, combination with CRBN ligand [drawing 457]",[2]; Table 4,✓ (A black check mark indicates efficacy of 30% to 70% or higher protein degradation)
"CCNC(=O)C[C@@H]1N=C(c2ccc(Cl)cc2)c2cc(OCCOCCOCCOCCOCCOCCNC(=O)c3cccc(O)c3O)ccc2-n2c(C)nnc21 [BRD-N71, N-(17-(((4S)-6-(4-chlorophenyl)-4-(2-(ethylamino)-2-oxoethyl)-1-methyl-4H-benzo[f][1,2,4]triazolo[4,3-a][1,4]diazepin-8-yl)oxy)-3,6,9,12,15-pentaoxaheptadecyl)-2,3-dihydroxybenzamide]","Degradation of BRD4, combination with CRBN ligand [drawing 457]",[2]; Table 4,✓ (A black check mark indicates efficacy of 30% to 70% or higher protein degradation)
same,"Degradation of BRD4, combination with MDM2 ligand [drawing 464]","[2]; Table 5, aryl-boronic acid-containing MDM2 ligand drawn as drawing 464 (apparently 8312)",✓ (A black check mark indicates efficacy of 30% to 70% or higher protein degradation)
O=C1CCC(N2C(=O)c3cccc(CNC(=O)c4cccc(B(O)O)c4)c3C2=O)C(=O)N1 (stereo not drawn) [compound 8049],loss of cellular viability (CellTiter-Glo),"[1]; 1 nM-100 μM, monomer alone",little loss of viability was observed
